Entries after “also recorded” stand apart in the source; their conditions may differ.
Legend:
[1] = tested on: Arabidopsis ecotype Columbia (Col-O); assay: Arabidopsis root growth inhibition assay; details: 6 days
Protocol: Phytotoxicity of other major dicamba decarboxylated products was evaluated using Arabidopsis root growth inhibition assay. 4-chloro-3-methoxy phenol was purchased from Biogene Organics, Inc. (catalog number U06-642-79). 2,5-dichloro phenol was purchased from Sigma-Aldrich (catalog number D70007). Briefly, seeds of Arabidopsis ecotype Columbia (Col-O) were surface sterilized with 70% (v/v) ethanol for 5 minutes and 10% (v/v) bleach for 15 minutes. After being washed three times with distilled water, the seeds were germinated on 1× Murashige and Skoog (MS) medium with a pH of 5.7, 3% (w/v) sucrose, and 0.8% (w/v) agar. After incubation for 3.5 days, the seedlings were transferred to 1× MS medium containing B5 vitamin, 3% (w/v) sucrose, 1.2% (w/v) agar, and filter sterilized compounds was added to the media at 60° C. The concentrations of compounds including dicamba were 0 μM, 1.0 μM, and 10 μM. The seedlings were placed vertically, and the temperature maintained at 23° C. to allow root growth along the surface of the agar, with a photoperiod of 16 h of light and 8 h of dark.
After 6 days on media, root growth was evaluated. In wild type Arabidopsis, root growth inhibition is expected from auxin herbicide treatment.

[2] = tested on: Soybean seeds of a Pioneer elite germplasm; assay: Soybean germination phytotoxicity test; details: for soybean seed germination and growth: 16 days

Row | SMILES | Arabidopsis root growth ([1]; 1.0 uM in MS medium) | Arabidopsis root growth ([1]; 10 uM in MS medium) | soybean seed germination and growth ([2]; 1 μM in germination media) | soybean seed germination and growth ([2]; 10 μM in germination media) | soybean seed germination and growth ([2]; 100 μM in germination media) | soybean germination ([2]; FIG. 2 legend, no concentration given)
1 | Oc1cc(Cl)ccc1Cl [2,5-dichloro phenol] | not affected; also recorded: did not have any effect on the growth of Arabidopsis roots | not affected; also recorded: did not have any effect on the growth of Arabidopsis roots |  |  |  | 
2 | COc1cc(Cl)ccc1Cl [2,5-DCA, 2,5-dichloro anisole] |  |  | seed germination and growth were normal | seed germination and growth were normal | did not have any obvious impact on soybean germination and growth | not affected

From US20140287419A1, “Compositions Having Dicamba Decarboxylase Activity and Methods of Use” (priority 2013, published 2014)
